Assays:
[1] = excess molar enthalpy (molar enthalpy of mixing); xn = mol fraction of the nth substance listed; conditions: 298.15 K, 101 kPa, Liquid, Calvet calorimetry
[2] = xn = mol fraction of the nth substance listed; conditions: 298.15 K, 101 kPa, Liquid, Vibrating tube method

BrCCCCCBr [1,5-dibromopentane] + CCCCOC(=O)CC
[1]
Conditions | excess molar enthalpy [kcal/mol]
x2 = 0.0697 | 0.00741
x2 = 0.1544 | 0.012
x2 = 0.248 | 0.0124
x2 = 0.3363 | 0.00884
x2 = 0.4134 | 0.00263
x2 = 0.4801 | -0.00526
x2 = 0.4924 | -0.00884
x2 = 0.5371 | -0.0131
x2 = 0.5511 | -0.0165
x2 = 0.6257 | -0.0206
x2 = 0.7153 | -0.021
x2 = 0.8183 | -0.016
x2 = 0.9151 | -0.00884

BrCCCCCBr [1,5-dibromopentane] + CCCCOC(C)=O
[1]
Conditions | excess molar enthalpy [kcal/mol]
x2 = 0.0669 | 0.00669
x2 = 0.1499 | 0.00956
x2 = 0.2436 | 0.01
x2 = 0.3318 | 0.00837
x2 = 0.4096 | 0.00454
x2 = 0.4762 | 0.000239
x2 = 0.5331 | -0.00478
x2 = 0.5566 | -0.00765
x2 = 0.5827 | -0.00932
x2 = 0.6168 | -0.0124
x2 = 0.6927 | -0.0151
x2 = 0.7844 | -0.0141
x2 = 0.8533 | -0.0105
x2 = 0.9377 | -0.00574

BrCCCCCBr [1,5-dibromopentane] + CCCCOC=O
Conditions | excess molar enthalpy [kcal/mol] | mass density [kg/m3]
[1], x2 = 0.0868 | 0.0232 | –
[1], x2 = 0.1853 | 0.0394 | –
[1], x2 = 0.2872 | 0.0531 | –
[1], x2 = 0.3842 | 0.0598 | –
[1], x2 = 0.4656 | 0.0605 | –
[1], x2 = 0.5328 | 0.0578 | –
[1], x2 = 0.5803 | 0.0557 | –
[1], x2 = 0.6291 | 0.0521 | –
[1], x2 = 0.7084 | 0.0447 | –
[1], x2 = 0.7902 | 0.0332 | –
[1], x2 = 0.8713 | 0.0215 | –
[1], x2 = 0.9437 | 0.0112 | –
[2], x2 = 0.0756 | – | 1642.01
[2], x2 = 0.1366 | – | 1599.08
[2], x2 = 0.2027 | – | 1551.59
[2], x2 = 0.2682 | – | 1503.58
[2], x2 = 0.3259 | – | 1460.47
[2], x2 = 0.3871 | – | 1413.8
[2], x2 = 0.4492 | – | 1365.54
[2], x2 = 0.5143 | – | 1313.85
[2], x2 = 0.5679 | – | 1270.35
[2], x2 = 0.6274 | – | 1221.19
[2], x2 = 0.687 | – | 1170.94
[2], x2 = 0.7958 | – | 1076.48
[2], x2 = 0.8434 | – | 1033.97
[2], x2 = 0.9499 | – | 936.18

BrCCCCCCBr [1,6-dibromohexane] + CCCCOC(=O)CC
Conditions | excess molar enthalpy, [1] [kcal/mol] | mass density, [2] [kg/m3]
x2 = 0.0686 | – | 1552.3
x2 = 0.0731 | 0.00669 | –
x2 = 0.1212 | – | 1514.66
x2 = 0.1582 | 0.0117 | –
x2 = 0.1829 | – | 1470.4
x2 = 0.2418 | 0.0136 | 1427.98
x2 = 0.2995 | – | 1386.24
x2 = 0.3151 | 0.012 | –
x2 = 0.3861 | 0.00621 | –
x2 = 0.4152 | – | 1302.26
x2 = 0.4485 | 0.000239 | –
x2 = 0.4752 | – | 1258.56
x2 = 0.5064 | -0.00669 | –
x2 = 0.5318 | -0.0105 | –
x2 = 0.5419 | -0.0108 | –
x2 = 0.5954 | – | 1170.51
x2 = 0.596 | -0.0143 | –
x2 = 0.6527 | – | 1128.4
x2 = 0.6658 | 0.016 | –
x2 = 0.7123 | – | 1084.48
x2 = 0.7456 | 0.0158 | –
x2 = 0.7652 | – | 1045.44
x2 = 0.8249 | – | 1001.25
x2 = 0.834 | 0.0127 | –
x2 = 0.8847 | – | 956.84
x2 = 0.9306 | 0.00526 | –
x2 = 0.9365 | – | 918.31
